The results in this text go back to patent publication US20240041976A1, “COMPOSITION AND USE” (priority 2020, published 2024).

In experiment [1] the test system is S. haemolyticus 4070. In words: microbe, parasite or virus in culture. Conditions: for MIC of the component in combination: 4070.
In experiment [2] the test system is S. aureus ATTC 10832 biofilm. In words: Biofilm-oriented antimicrobial test (BOAT), MIC50 in biofilms. It is filed as cell-based, Staphylococcus aureus. Conditions: for MIC50: Staphylococcus aureus, ATTC10832BIOFILM, individual component, read-out: MIC50. How it is done: (§1) Synergistic interactions between antimicrobials were determined using the fractional inhibition concentration (FIC). The FIC values were calculated as follows: the sum of the FIC =FICa+FICb+FICc, where the FICa means MIC of A in combination/MIC of A alone, FICb means MIC of B in combination/MIC of B, and FICc means MIC of C in combination/MIC of C alone. Effects were considered as synergistic if FIC was ≤0.5 for two components mixture and ≤0.75 for three components mixture.
(§2) Staphylococcus aureus strains were inoculated in 5 ml of TSB and incubated O/N at 37° C. Ten μl of the O/N cultures were then inoculated in 90 μl of TSB supplemented with 1% glucose and 1% NaCl (TSB-GN) in the appropriate wells of a 96-well microtiter plate (Sarstedt) to a final volume of 100 μl. The plates were then incubated at 37° C. for 24 h. After the incubation, the presence of the biofilm at the bottom of the wells was assessed visually.
(§3) The BOAT assay was performed as described previously (Gronseth et al., 2017, Int. J. Pediatr. Otorhinolaryngol., Vol. 103, p 58-64) with some modifications. The serial dilutions of the antimicrobials were prepared in challenge plates as follows: 175 μl of TSB were transferred in each row of a 96-well microtiter plate, except for the first row, according to the number of microbial strains to treat. In the first row of the plate, the antimicrobials were diluted to their respective working concentrations in a final volume of 350 μl of TSB. From the first row, 175 μl of the antimicrobial dilutions were then transferred to the second row of the plate and further serially diluted to the bottom of the plate. The same procedure was followed to prepare the controls, except that instead of the antimicrobials an equivalent volume of the respective vehicles were used. The biofilms were allowed to form for 24 h and then washed twice with 100 μl of sterile saline buffer and a total of 150 μl of the antimicrobial and control dilutions were transferred from the challenge plate to the corresponding wells of the biofilm plate. The challenged biofilms were then incubated for an additional 24 h at 37° C. After the challenge period, the antimicrobial dilutions were removed and the biofilms were carefully washed three times with 150 μl of sterile saline buffer. A total of 100 μl of TSB supplemented with 0.025% of triphenyl-tetrazolium chloride (TTC, Sigma) were then added to each well of the plate and further incubated at 37° C. for 5h. The results were then assessed by monitoring the development (or not) of red formazan (red colour), denoting the retention of metabolic activity by bacterial cells (Moussa et al., 2013, J. Mycol., Vol. 2013; Perez et al., 2010, Lett. Appl. Microbiol., Vol. 51, p 331-337). The medium was then removed and 200 μl of an ethanol:acetone (70:30) mixture was added to the wells and incubated O/N in order to extract the red formazan. The amount of extracted dye, reflecting the degree of bacterial cell metabolic activity, was then quantified by spectrophotometric readings at 492 nm.

The subject of experiment [3] is S. aureus ATTC 29213 biofilm. Described as above. It counts as cell-based, Staphylococcus aureus. The following applies: for MIC50: Staphylococcus aureus, ATTC29213BIOFILM, individual component, read-out: MIC50. Here is the method: as §1, §2, §3
For experiment [4], the system named is S. aureus USA 300 biofilm. Described as above. It is filed as cell-based, Staphylococcus aureus. Conditions: for MIC50: Staphylococcus aureus, USA300, individual component, read-out: MIC50. How it is done:
as §1, §2, §3

Experiment [5] deals with S. aureus ATTC 33591 biofilm. The experiment is described as above. It counts as cell-based, Staphylococcus aureus. Conditions: ATTC 33591, biofilm; for MIC50: Staphylococcus aureus, ATTC33591BIOFILM, individual component, read-out: MIC50. How it is done:
as §1, §2, §3

The test system of experiment [6] is S. aureus Newman biofilm. The description is as above. It counts as cell-based, Staphylococcus aureus. The following applies: for MIC50: Staphylococcus aureus, individual component, read-out: MIC50. Here is the method:
as §1, §2, §3

Experiment [7] has as its system S.a. 3255 biofilm. Described as above. It is filed as cell-based, Staphylococcus aureus. The following applies: for MIC50: Staphylococcus aureus, individual component, read-out: MIC50. Here is the method: as §1, §2, §3
Setting [8] is: garvicin KS + micrococcin P1 + penicillin G.

Each structure is given as a SMILES string.

In the case of `C/C=C(\NC(=O)c1csc(-c2csc(-c3ccc4c(n3)-c3csc(n3)[C@H]([C@@H](C)O)NC(=O)c3csc(n3)[C@H](C(C)C)NC(=O)c3csc(n3)/C(=C/C)NC(=O)[C@H]([C@@H](C)O)NC(=O)c3csc-4n3)n2)n1)C(=O)NC[C@@H](C)O` [MP1, micrococcin P1], the “MIC of the component in combination” value in experiment [1] (5 h, GarKS + MP1) was determined as 0.02 µg/mL; in experiment [1] (5 h, K1-EJ + GarKS + MP1) it was 0.032 µg/mL; in experiment [1] (5 h, K1-EJ + MP1), 0.02 µg/mL; in experiment [1] (24 h, GarKS + MP1), 0.33 µg/mL; in experiment [1] (24 h, K1-EJ + GarKS + MP1), 0.28 µg/mL; in experiment [1] (24 h, K1-EJ + MP1) it was 0.28 µg/mL. Also, the “MIC of the component in combination” value came out at 0.63 µg/mL in experiment [1] (48 h, GarKS + MP1); 0.58 µg/mL in experiment [1] (48 h, K1-EJ + GarKS + MP1); 0.6 µg/mL in experiment [1] (48 h, K1-EJ + MP1). In addition, the MIC in experiment [1] (Staphylococcus haemolyticus, 4070, 5 h) was found to be 0.02 µg/mL; in experiment [1] (Staphylococcus haemolyticus, 4070, 24 h) it was 0.33 µg/mL; in experiment [1] (Staphylococcus haemolyticus, 4070, 48 h), 0.13 µg/mL. Besides, the MIC50 in experiment [2], in experiment [3], in experiment [4], in experiment [5], in experiment [6] and in experiment [7] was over 100 µg/mL in each case. Also, the “MIC50 of the component in combination” value in experiment [2] (garvicin KS + micrococcin P1) was 25 µg/mL; in experiment [2] (setting [8]) it was 3.1 µg/mL; in experiment [3] (garvicin KS + micrococcin P1), 25 µg/mL; in experiment [3] (setting [8]), 6.3 µg/mL; in experiment [4] (garvicin KS + micrococcin P1), 100 µg/mL; in experiment [4] (setting [8]) it was 100 µg/mL. For the same compound, the “MIC50 of the component in combination” value in experiment [5] (garvicin KS + micrococcin P1) was over 100 µg/mL; in experiment [5] (setting [8]), 100 µg/mL; in experiment [6] (garvicin KS + micrococcin P1), 25 µg/mL; in experiment [6] (setting [8]), 25 µg/mL; in experiment [7] (garvicin KS + micrococcin P1) it was 2.5 × 10^−2. mg/ml; in experiment [7] (setting [8]) it was 0.0063 mg/mL.
Regarding `CC1(C)S[C@@H]2[C@H](NC(=O)Cc3ccccc3)C(=O)N2[C@H]1C(=O)O` [Penicillin G], the MIC50 is 10000 µg/mL in experiment [2]; 10000 µg/mL in experiment [3]; over 10000 µg/mL in experiment [4]; over 10000 µg/mL in experiment [5]; 10000 µg/mL in experiment [6]; 10000 µg/mL in experiment [7]. Moreover, the “MIC50 of the component in combination” value was 310 µg/mL in experiment [2] (setting [8]); 630 µg/mL in experiment [2] (garvicin KS + penicillin G); 630 µg/mL in experiment [3] (setting [8]); 2500 µg/mL in experiment [3] (garvicin KS + penicillin G); 10000 µg/mL in experiment [4] (setting [8]); over 10000 µg/mL in experiment [4] (garvicin KS + penicillin G). Also, the “MIC50 of the component in combination” value is 10000 µg/mL in experiment [5] (setting [8]); over 10000 µg/mL in experiment [5] (garvicin KS + penicillin G); 2500 µg/mL in experiment [6] (setting [8]); 1300 µg/mL in experiment [6] (garvicin KS + penicillin G); 0.63 mg/mL in experiment [7] (setting [8]); 0.63 mg/mL in experiment [7] (garvicin KS + penicillin G).
